IC50 and melting point data for 22 compounds are collected here from patent US9115134B2, “6-triazolopyridazine sulfanyl benzothiazole derivatives as MET inhibitors” (SANOFI, priority 2007, dated 2015).

Data set [1] concerns the target T1, MET (Homo sapiens, UniProt P08581). The data set can be described thus: Test B: Inhibition of the autophosphorylation of MET; ELISA technique (pppY1230,1234,1235) in MKN45 cells. On the set-up: Seed MKN45 cells into 96-well plates (Cell coat BD polylysine) at 20 000 cells/well; endogenous in cells; host or cells: MKN45 cells. Particulars: 1 h treatment, PhosphoMET ELISA. The format is cell-based. The procedure, abridged:
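Adhered cells treated 1 h with six compound concentrations in duplicate, final 10 000 to 30 nM, against DMSO controls. Cells then lysed at 4° C for 30 min in Triton/SDS/deoxycholate buffer with phosphatase inhibitors. Phospho-MET measured by sandwich ELISA with anti-phospho MET antibody and HRP detection, absorbance at 450 nm.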
Target sequence in this assay (P08581 25-1390): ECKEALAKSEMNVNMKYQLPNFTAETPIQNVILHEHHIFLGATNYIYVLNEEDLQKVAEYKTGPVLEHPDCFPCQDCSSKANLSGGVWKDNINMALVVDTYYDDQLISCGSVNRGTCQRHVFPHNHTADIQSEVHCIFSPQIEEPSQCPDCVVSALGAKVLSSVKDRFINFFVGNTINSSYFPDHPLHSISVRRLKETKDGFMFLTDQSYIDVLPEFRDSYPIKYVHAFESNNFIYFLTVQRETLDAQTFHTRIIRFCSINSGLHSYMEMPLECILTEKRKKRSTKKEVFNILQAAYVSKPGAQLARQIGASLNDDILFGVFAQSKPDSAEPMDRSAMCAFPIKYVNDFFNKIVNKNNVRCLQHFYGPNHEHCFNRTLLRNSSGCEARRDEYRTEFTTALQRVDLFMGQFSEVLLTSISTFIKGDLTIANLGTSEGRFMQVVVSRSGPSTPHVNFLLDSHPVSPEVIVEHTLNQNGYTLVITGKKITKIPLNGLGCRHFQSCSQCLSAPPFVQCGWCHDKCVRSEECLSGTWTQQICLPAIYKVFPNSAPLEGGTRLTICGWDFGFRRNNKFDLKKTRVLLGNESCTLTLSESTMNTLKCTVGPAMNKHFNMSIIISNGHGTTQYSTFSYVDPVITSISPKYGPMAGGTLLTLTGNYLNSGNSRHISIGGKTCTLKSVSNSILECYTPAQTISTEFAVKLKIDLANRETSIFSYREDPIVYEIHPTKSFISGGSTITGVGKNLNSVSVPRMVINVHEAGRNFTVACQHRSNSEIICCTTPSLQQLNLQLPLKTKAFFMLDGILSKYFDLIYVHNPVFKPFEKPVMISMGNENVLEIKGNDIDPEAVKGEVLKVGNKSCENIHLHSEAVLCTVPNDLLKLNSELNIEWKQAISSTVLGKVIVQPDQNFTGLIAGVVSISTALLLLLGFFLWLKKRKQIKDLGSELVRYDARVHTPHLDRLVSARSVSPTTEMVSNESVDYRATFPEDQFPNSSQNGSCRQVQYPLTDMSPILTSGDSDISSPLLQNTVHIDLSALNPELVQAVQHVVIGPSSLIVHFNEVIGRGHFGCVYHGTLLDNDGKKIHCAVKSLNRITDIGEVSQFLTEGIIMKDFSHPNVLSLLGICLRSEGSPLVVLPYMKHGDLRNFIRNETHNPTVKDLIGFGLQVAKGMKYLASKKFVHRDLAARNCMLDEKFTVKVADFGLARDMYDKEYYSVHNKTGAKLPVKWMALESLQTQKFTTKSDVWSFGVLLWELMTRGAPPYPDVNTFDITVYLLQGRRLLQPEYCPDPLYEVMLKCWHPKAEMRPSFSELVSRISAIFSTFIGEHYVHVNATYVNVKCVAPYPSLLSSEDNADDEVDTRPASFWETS

The target of data set [2] is T1, MET. Description: Test A: HTRF MET assay in 96-well format. Format: biochemical. On the set-up: The His-Tev-MET (956-1390) recombinant DNA in pFastBac (Invitrogen) is transfected into insect cells; His tag (N, cleaved yes); TEV cleavage site (N); made in house; host or cells: SF21 insect cells (baculovirus, pFastBac). Particulars: MET 5 nM, 10 μM ATP. The procedure, abridged: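 Purified human MET cytoplasmic domain (956-1390, His tag cleaved), 5 nM, with compound (0.17 nM–10 μM, 3% DMSO) in MOPS pH 7.4; 1 μg/ml poly-(GAT), 10 μM ATP, 5 mM MgCl2, 10 min at ambient temperature. HTRF read-out (streptavidin-XL/anti-pTyr Eu cryptate, 2 h); % inhibition from 665/620 ratios.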
Target sequence in this assay (P08581 956-1390): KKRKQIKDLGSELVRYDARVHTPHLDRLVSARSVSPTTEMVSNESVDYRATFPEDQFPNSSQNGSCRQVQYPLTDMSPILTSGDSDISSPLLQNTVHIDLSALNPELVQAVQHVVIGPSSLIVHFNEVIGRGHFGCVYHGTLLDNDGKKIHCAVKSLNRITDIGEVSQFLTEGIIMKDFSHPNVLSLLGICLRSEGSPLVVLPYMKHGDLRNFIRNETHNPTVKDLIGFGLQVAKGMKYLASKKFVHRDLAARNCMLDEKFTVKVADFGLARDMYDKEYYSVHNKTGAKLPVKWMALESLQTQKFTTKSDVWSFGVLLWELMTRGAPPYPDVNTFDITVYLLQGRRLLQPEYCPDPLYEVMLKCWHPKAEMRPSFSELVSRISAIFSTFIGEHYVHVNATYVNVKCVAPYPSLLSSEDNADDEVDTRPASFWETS
In general terms: Time-resolved FRET reads energy transfer from a long-lived donor to a nearby acceptor.

Data set [3] concerns HCT116 cells, MKN45 cells. The data set can be described thus: Test C: Measurement of cell proliferation by 14C-thymidine pulse. Format: cell-based. The conditions noted are these: 14C-thymidine incorporation, 96 h of treatment; cell line not given. The procedure, abridged: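 HCT116 (2500/well, DMEM) and MKN45 (7500/well, RPMI), both with 10% FCS, treated after 4 h with 10 concentrations from 10 000 to 0.3 nM (3-fold, duplicate). ¹⁴C-thymidine (0.1 μCi/well) added at 72 h; incorporation read after 24 h pulse, 96 h total treatment.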
In general terms: Incorporation of labelled thymidine or its analogues reports DNA synthesis.

Molecules are shown by their SMILES. A value given as a limit tells only on which side of the number the result lay.

What is called IC50 is the concentration needed to halve the response being measured. Take `COCCCOC(=O)Nc1nc2ccc(Sc3nnc4ccc(NCCOC)nn34)cc2s1` [Example 47, 3-Methoxypropyl[6-({6-[(2-methoxyethyl)amino][1,2,4]triazolo[4,3-b]pyridazin-3-yl}sulphanyl)-1,3-benzothiazol-2-yl]carbamate]: the IC50 against MET [1] was 100 to 500 nM; at MET [2], under 100 nM; in data set [3], under 1000 nM.
On the same counts, the results for `COCCNc1ccc2nnc(Sc3ccc4nc(NC(=O)NCCN5CCCC5)sc4c3)n2n1` [Example 48, 1-[6-({6-[(2-Methoxyethyl)amino][1,2,4]triazolo[4,3-b]pyridazin-3-yl}sulphanyl)-1,3-benzothiazol-2-yl]-3-[2-(pyrrolidin-1-yl)ethyl]urea] are 100 to 500 nM, under 100 nM and under 1000 nM.
Take `COc1ccc2nnc(Sc3ccc4nc(NC(=O)NCCN5CCCC5)sc4c3)n2n1` [Example 49, 1-{6-[(6-Methoxy[1,2,4]triazolo[4,3-b]pyridazin-3-yl)sulphanyl]-1,3-benzothiazol-2-yl}-3-[2-(pyrrolidin-1-yl)ethyl]urea]: the figures for the IC50 (at MET [1]; at MET [2]; in data set [3]) were under 100 nM, under 100 nM and under 1000 nM, respectively.
For `CCOc1ccc2nnc(Sc3ccc4nc(N)sc4c3)n2n1` [Example 50, 6-[(6-Ethoxy[1,2,4]triazolo[4,3-b]pyridazin-3-yl)sulphanyl]-1,3-benzothiazol-2-amine], the results for the half-maximal inhibitory concentration (IC50) (against MET [1]; at MET [2]; in data set [3]) were 100 to 500 nM, under 100 nM and under 1000 nM, respectively.
On the same counts, the results for `CC(C)(C)OC(=O)Nc1nc2ccc(Sc3nnc4ccc(OCC(O)CCCl)nn34)cc2s1` (stereo not shown) [Example 51, 2-Methylpropan-2-yl(6-{[6-(4-chloro-2-hydroxybutoxy)[1,2,4]triazolo[4,3-b]pyridazin-3-yl]sulphanyl}-1,3-benzothiazol-2-yl)carbamate] are under 100 nM, under 100 nM and under 1000 nM.
Regarding `CC(CO)(CCl)COc1ccc2nnc(Sc3ccc4nc(NC(=O)OC(C)(C)C)sc4c3)n2n1` (stereo not shown) [Example 52, 2-Methylpropan-2-yl[6-({6-[3-chloro-2-(hydroxymethyl)-2-methylpropoxy]-[1,2,4]triazolo[4,3-b]pyridazin-3-yl}sulphanyl)-1,3-benzothiazol-2-yl]carbamate], the IC50 is under 100 nM against MET [1], under 100 nM on MET [2] and under 1000 nM in data set [3].
Take `Nc1nc2ccc(Sc3nnc4ccc(-c5cccc(F)c5)nn34)cc2s1` [Example 53, 6-{[6-(3-Fluorophenyl)[1,2,4]triazolo[4,3-b]pyridazin-3-yl]sulphanyl}-1,3-benzothiazol-2-amine]: the IC50 on MET [1] is under 100 nM; at MET [2], under 100 nM; in data set [3], under 1000 nM.
On to `Nc1nc2ccc(Sc3nnc4n3N=C(c3cccc(F)c3)CC4)cc2s1` [Example 54, 6-{[6-(3-Fluorophenyl)-7,8-dihydro[1,2,4]triazolo[4,3-b]pyridazin-3-yl]sulphanyl}-1,3-benzothiazol-2-amine], for which the IC50 is 100 to 500 nM against MET [1], under 100 nM on MET [2] and under 1000 nM in data set [3].
In the same order, the values of `O=C(Nc1nc2ccc(Sc3nnc4ccc(-c5ccc(F)cc5)nn34)cc2s1)N1CCOCC1` [Example 55, N-(6-{[6-(4-Fluorophenyl)[1,2,4]triazolo[4,3-b]pyridazin-3-yl]sulphanyl}-1,3-benzothiazol-2-yl)morpholine-4-carboxamide] are 100 to 500 nM, under 100 nM and under 1000 nM.
In the same order, the values of `Nc1nc2ccc(Sc3nnc4ccc(-c5ccccc5F)nn34)cc2s1` [Example 56, 6-{[6-(2-Fluorophenyl)[1,2,4]triazolo[4,3-b]pyridazin-3-yl]sulphanyl}-1,3-benzothiazol-2-amine] are 100 to 500 nM, under 100 nM and under 1000 nM.
Take `CCC(C)CNc1nc2ccc(Sc3nnc4ccc(NCCOC)nn34)cc2s1` (stereo not shown) [Example 57, N-(2-Methoxyethyl)-3-({2-[(2-methylbutyl)amino]-1,3-benzothiazol-6-yl}sulphanyl)[1,2,4]triazolo[4,3-b]pyridazin-6-amine]: the IC50 against MET [1] was 100 to 500 nM; at MET [2], under 100 nM; in data set [3], under 1000 nM.
As for `CCOc1ccc2nnc(Sc3ccc4nc(NC(=O)CCOC)sc4c3)n2n1` [Example 58, N-{6-[(6-Ethoxy[1,2,4]triazolo[4,3-b]pyridazin-3-yl)sulphanyl]-1,3-benzothiazol-2-yl}-3-methoxypropanamide], the IC50 against MET [1] was under 100 nM; at MET [2], under 100 nM; in data set [3], under 1000 nM.
Regarding `CCOc1ccc2nnc(Sc3ccc4nc(NC(=O)NC5CC5)sc4c3)n2n1` [Example 59, 1-cyclopropyl-3-{6-[(6-ethoxy[1,2,4]triazolo[4,3-b]pyridazin-3-yl)sulphanyl]-1,3-benzothiazol-2-yl}urea], the half-inhibitory concentration (IC50) at MET [1] is under 100 nM; at MET [2], under 100 nM; in data set [3] it was under 1000 nM.
Regarding `O=C(Nc1nc2ccc(Sc3nnc4ccc(-c5ccc(F)cc5)nn34)cc2s1)C1CC1` [Example 60, N-(6-{[6-(4-Fluorophenyl)[1,2,4]triazolo[4,3-b]pyridazin-3-yl]sulphanyl}-1,3-benzothiazol-2-yl)cyclopropanecarboxamide], the IC50 on MET [1] is under 100 nM; on MET [2], under 100 nM; in data set [3] it was under 1000 nM.
On to `O=C(Nc1nc2ccc(Sc3nnc4n3N=C(c3ccc(F)cc3)CC4)cc2s1)C1CC1` [Example 61, N-(6-{[6-(4-Fluorophenyl)-7,8-dihydro[1,2,4]triazolo[4,3-b]pyridazin-3-yl]sulphanyl}-1,3-benzothiazol-2-yl)cyclopropanecarboxamide], for which the IC50 on MET [1] was under 100 nM; on MET [2], under 100 nM; in data set [3] it was under 1000 nM.
As to `Nc1nc2ccc(Sc3nnc4ccc(NC5CCCCC5)nn34)cc2s1` [Example 62, 3-[(2-Amino-1,3-benzothiazol-6-yl)sulphanyl]-N-cyclohexyl[1,2,4]triazolo[4,3-b]pyridazin-6-amine], the IC50 against MET [1] was under 100 nM; at MET [2], under 100 nM; in data set [3], under 1000 nM.
On to `Nc1nc2ccc(Sc3nnc4ccc(OC5CCCCC5)nn34)cc2s1` [Example 63, 6-{[6-(Cyclohexyloxy)[1,2,4]triazolo[4,3-b]pyridazin-3-yl]sulphanyl}-1,3-benzothiazol-2-amine], for which the figures for the IC50 (on MET [1]; on MET [2]; in data set [3]) were 100 to 500 nM, under 100 nM and under 1000 nM, respectively.
For the compound `O=C(NCCN1CCOCC1)Nc1nc2ccc(Sc3nnc4ccc(-c5cccc(F)c5)nn34)cc2s1` [Example 64, 1-(6-{[6-(3-Fluorophenyl)[1,2,4]triazolo[4,3-b]pyridazin-3-yl]sulphanyl}-1,3-benzothiazol-2-yl)-3-[2-(morpholin-4-yl)ethyl]urea], the IC50 is under 100 nM against MET [1], under 100 nM at MET [2] and under 1000 nM in data set [3].
In the case of `CC(=O)Nc1nc2ccc(Sc3nnc4ccc(-c5cccc(F)c5)nn34)cc2s1` [Example 65, N-(6-{[6-(3-Fluorophenyl)[1,2,4]triazolo[4,3-b]pyridazin-3-yl]sulphanyl}-1,3-benzothiazol-2-yl)acetamide], the IC50 at MET [1] was under 100 nM; at MET [2], under 100 nM; in data set [3], under 1000 nM.
As for `CC(C)C(=O)Nc1nc2ccc(Sc3nnc4ccc(-c5ccc(F)cc5)nn34)cc2s1` [Example 66, N-(6-{[6-(4-Fluorophenyl)[1,2,4]triazolo[4,3-b]pyridazin-3-yl]sulphanyl}-1,3-benzothiazol-2-yl)-2-methylpropanamide], the figures for the concentration for half-maximal inhibition (IC50) (against MET [1]; on MET [2]; in data set [3]) were 100 to 500 nM, under 100 nM and under 1000 nM, respectively.
In the same order, the values of `O=C(Nc1nc2ccc(Sc3nnc4ccc(-c5cccc(F)c5)nn34)cc2s1)C1CC1` [Example 67, N-(6-{[6-(3-Fluorophenyl)[1,2,4]triazolo[4,3-b]pyridazin-3-yl]sulphanyl}-1,3-benzothiazol-2-yl)cyclopropanecarboxamide] are under 100 nM, under 100 nM and under 1000 nM.
As a reminder, the melting point is the temperature, or range, at which the solid turns liquid. Compound `CCC(C)CNc1nc2ccc(Sc3nnc4n3N=C(c3ccc(F)cc3)CC4)cc2s1` (stereo not shown) [Example 68, 6-{[6-(4-Fluorophenyl)-7,8-dihydro[1,2,4]triazolo[4,3-b]pyridazin-3-yl]sulphanyl}-N-(2-methylbutyl)-1,3-benzothiazol-2-amine] had a melting point of 220 °C. Further, on MET [1], the 50% inhibitory concentration (IC50) is over 500 nM. In addition, at MET [2], the IC50 is under 500 nM. The IC50 in data set [3] was under 10000 nM.
